From patent US6328998A, “Composition comprising L-carnitine or an alkanoyl L-carnitine and long-chain alkanols” (Sigma-Tau Industrie Farmaceutiche Riunite S.p.A., priority 1997, dated 2001)
Values belong to the compound of their own block, whether it stands above or below them.

What was measured:
[1] = Acute oral toxicity in rats; format: in vivo; conditions: 2 g/kg L-carnitine or 500 mg/kg hexacosanol, alone or in combination
[2] = tested on: atherosclerotic lesions (abdominal aorta); assay: Experimental atherosclerosis tests (atherogenic diet); format: in vivo, Wistar male rats; conditions: abdominal aorta thickness and Sudan IV staining, 1- to 5-point score
Protocol: D2 200 m STU/g diet. The anti-atherogenic effect of both L-carnitine and hexacosanol were evaluated by using morphometric methods to measure the thickness of the abdominal aorta and the intensity of the staining induced by Sudan IV, with a 1- to 5-point scoring system, according to the degree of severity.

platelet aggregation = assay: Platelet aggregation inhibition tests (collagen-induced); format: cell-based, healthy volunteers; conditions: collagen 2.5 ng/mL, 10 min incubation
Protocol: The tests were performed using plasma from healthy volunteers containing at least 300,000 platelets/mm^3.
The platelet count was done using a CA 580A Platelet Counter (Delcon). Platelet aggregation was induced using collagen as the aggregating agent at doses of 2.5 and 5 ng/mL according to the technique described by Born and Cross (Born YVR, Cross M, J Physiol 26: 25, 1963).
Platelet aggregation was determined photometrically (Born VJR, Nature 194: 927, 1962) using an Elvi 840 aggregometer.
Platelet aggregation was measured in basal conditions and after 10 min of incubation with L-carnitine, hexacosanol and the L-carnitine-hexacosanol combination.

[3] = Prolonged daily administration (30 days) tolerability, body weight, blood chemistry and histology; format: in vivo, rats and mice; conditions: daily for 30 days; carnitine 250 mg/kg or hexacosanol 20 mg/kg, alone or in combination
Text: Moreover, no abnormalities were found at histological examination of the parenchyma of the main organs (heart, lungs, kidneys, adrenal glands and pancreas).

[4] = tested on: left ventricular arrhythmias due to myocardial anoxia; assay: Cardiac anoxia induced by coronary ligation (left ventricular arrhythmias); format: in vivo, Male Wistar rats; conditions: for Start of arrhythmias / Total ectopic contractions during 30 min after coronary ligation: L-carnitine 100 mg/kg, hexacosanol 10 mg/kg or both into left ventricle 15 min before ligation; for Start of arrhythmias: controls 4-7; for Total ectopic contractions during 30 min after coronary ligation: controls 992 ± 118; for ability to reduce ectopic contractions (in words): administered alone
Protocol: These tests were performed to evaluate the protective action of L-carnitine and hexacosanol and their combination on left ventricular arrhythmias due to myocardial anoxia induced by coronary ligation according to the technique described by Selych et cal. (Angiology 11-398, 1960) and by Clark et al. (J Pharmacol Methods 3-357, 1980). Male Wistar rats with a mean body weight of 350-400 g were submitted to surgical occlusion of the left coronary artery. Arrhythmias set in within 4-7 min of coronary ligation. Ventricular ectopic contractions were then counted during a period of 30 min both in a group of control rats and in the groups of rats receiving slow injection of a solution containing L-carnitine (100 mg/kg), hexacosanol (10 mg/kg) or the two substances in combination at the same doses into the left ventricle 15 min before ligation.

[5] = Acute oral toxicity in mice; format: in vivo; conditions: 2 g/kg L-carnitine or 500 mg/kg hexacosanol, alone or in combination
blood cholesterol = assay: Experimental cholesterolaemia tests; format: in vivo; conditions: for total cholesterol: daily for six weeks with cholesterolaemia-lowering diet, L-carnitine 100 mg/kg, hexacosanol 10 mg/kg or both, controls 95.2 ± 5.4, hypercholesterolaemic controls 285.7 ± 11.2; for cholesterolaemia-lowering action (in words): six weeks
Text: In experimental cholesterolaemia, too, a marked synergistic effect of the L-carnitine plus hexacosanol combination was detected. In these tests, the experimental cholesterolaemia was induced according to the method described by Sirtori (Sirtori CR, Atherosclerosis 26-27, 1977). Treatment both With L-carnitine and hexacosanol, as well as with the two compounds in combination, was continued daily for six weeks, in conjunction with a cholesterolaemia-lowering diet. On completing the six weeks of treatment, blood cholesterol was assayed both in control animals put on a cholesterolaemia-lowering diet alone and in animals treated with L-carnitine, or with hexacosanol, or with the two compounds in combination. Using the assay method described by Roschlan (Roschlan P, Clin Chem Clin Biochem 12: 403, 1975).

[6] = tested on: ATP content of the papillary muscle; assay: ATP concentrations in papillary muscle of rabbits with induced hypoxia; format: in vivo, New Zealand rabbits; conditions: L-carnitine 100 mg/kg, hexacosanol 10 mg/kg or both, i.v. daily for 3 days; for ATP content after hypoxia: 60 min of hypoxia, controls 0.45 ± 0.03; for ATP content before hypoxia: normal perfusion 90 min, controls 1.65 ± 0.28
Protocol: These tests were performed in New Zealand rabbits with a mean body weight of 2 kg, receiving daily intravenous injections of a solution containing 100 mg/kg of L-carnitine or 10 mg/kg of hexacosanol, or of the two substances combined at the same doses, for 3 consecutive days. A group of animals received no treatment and served as the control group.
All the animals treated were sacrificed along with the controls at the end of the third day of treatment two hours after the last injection. The hearts were removed and equal sections of papillary muscle measuring 1 mm in diameter and 4-5 mm in thickness were isolated. These tissues were perfused in a thermostatic bath with a (100%) saturated O2 solution. Experimental hypoxia conditions were induced by introducing N2 (100%) into the bath in place of O2. […] The analysis was done on tissue samples maintained under normal perfusion conditions for 90 min and after 60 min of hypoxia.

SMILES: C[N+](C)(C)C[C@H](O)CC(=O)[O-] [L-carnitine]
mortality [1]: without any mortality | signs of toxicity [1]: without any evident signs of toxicity | severity/occurrence of atherosclerotic lesions (in words) [2]: capable of reducing the severity of the atherosclerotic lesions | effect on platelet aggregation induced by collagen (in words) (platelet aggregation): not changed | signs of toxic reactions or of poor tolerability [3]: failed to produce any signs of toxic reactions or of poor tolerability | Start of arrhythmias [4]: 4 to 7 min | Total ectopic contractions during 30 min after coronary ligation [4]: 860 ± 202 | ability to reduce ectopic contractions (in words) [4]: only a very limited ability to reduce ectopic contractions | mortality [5]: without any mortality | signs of toxicity [5]: without any evident signs of toxicity | total cholesterol (blood cholesterol): 265.5 ± 6.1 mg/dL | cholesterolaemia-lowering action (in words) (blood cholesterol): fairly modest | ATP content after hypoxia [6]: 0.67 ± 0.02 µmol/g tissue | ATP content before hypoxia [6]: 1.77 ± 0.25 µmol/g tissue

IC50 (platelet aggregation; Homo sapiens, Platelet, 10 min, read-out: ED50, inhibition of platelet aggregation induced by collagen): 5.5 ng/mL
SMILES: CCCCCCCCCCCCCCCCCCCCCCCCCCO [Hexacosanol]
severity/occurrence of atherosclerotic lesions (in words) [2]: capable of reducing the severity of the atherosclerotic lesions | effect on platelet aggregation induced by collagen (in words) (platelet aggregation): only partly inhibiting the platelet aggregation | Start of arrhythmias [4]: 5 to 7 min | Total ectopic contractions during 30 min after coronary ligation [4]: 810 ± 190 | ability to reduce ectopic contractions (in words) [4]: only a very limited ability to reduce ectopic contractions | total cholesterol (blood cholesterol): 268.5 ± 5.6 mg/dL | cholesterolaemia-lowering action (in words) (blood cholesterol): fairly modest | ATP content after hypoxia [6]: 0.77 ± 0.05 µmol/g tissue | ATP content before hypoxia [6]: 1.7 ± 0.3 µmol/g tissue
